Assay results taken from ChEMBL document CHEMBL4190379 (Bioorg Med Chem Lett, 2018).
pKi: −log10 of the molar value.

Key:
[1] = test system: OPM-2; assay: Antitumor activity against human OPM2 cells xenografted in SCID-beige mouse assessed as inhibition of tumor growth at 7.5 mg/kg, po qd administered for 28 days starting from 18 days post tumor inoculation; type: functional; settings: OPM-2, po, read-out: TGI
[2] = target: Bromodomain-containing protein 2 (Homo sapiens, UniProt P25440); assay: Binding affinity to BRD2 bromodomain 1 to 2 (G73 to A560 amino acids) (unknown origin) using Alexa647-labeled BET-inhibitor as fluorescent probe by bromodomain TR-FRET binding assay
Bromodomain-containing protein 2, sequence (P25440 whole entry, the tested form may be a part): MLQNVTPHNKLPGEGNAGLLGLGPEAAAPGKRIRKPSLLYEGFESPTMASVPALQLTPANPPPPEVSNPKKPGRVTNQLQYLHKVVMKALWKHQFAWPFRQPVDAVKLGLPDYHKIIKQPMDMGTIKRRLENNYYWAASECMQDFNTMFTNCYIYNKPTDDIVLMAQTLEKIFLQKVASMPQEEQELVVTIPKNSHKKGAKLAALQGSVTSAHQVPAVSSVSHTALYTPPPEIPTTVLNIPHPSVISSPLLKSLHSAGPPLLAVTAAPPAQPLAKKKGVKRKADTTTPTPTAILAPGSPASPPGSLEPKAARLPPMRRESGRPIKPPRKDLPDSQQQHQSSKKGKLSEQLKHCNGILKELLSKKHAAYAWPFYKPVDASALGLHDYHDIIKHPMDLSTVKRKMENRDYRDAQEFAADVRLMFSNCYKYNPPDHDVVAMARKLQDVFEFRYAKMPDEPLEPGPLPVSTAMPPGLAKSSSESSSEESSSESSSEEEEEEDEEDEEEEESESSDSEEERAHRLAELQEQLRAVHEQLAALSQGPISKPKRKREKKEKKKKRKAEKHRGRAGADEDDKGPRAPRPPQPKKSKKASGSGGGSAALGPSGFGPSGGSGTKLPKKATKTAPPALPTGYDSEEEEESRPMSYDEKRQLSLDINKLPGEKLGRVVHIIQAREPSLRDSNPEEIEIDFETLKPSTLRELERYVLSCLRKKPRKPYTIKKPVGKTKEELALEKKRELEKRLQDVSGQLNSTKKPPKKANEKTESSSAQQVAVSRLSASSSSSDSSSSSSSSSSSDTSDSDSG

[3] = target: SWI/SNF-related matrix-associated actin-dependent regulator of chromatin subfamily A member 2 (Homo sapiens) (UniProt P51531); assay: Binding affinity to human SMARCA2 expressed in bacterial system assessed as remaining binding level at 1 uM by BROMOscan assay relative to control
SWI/SNF-related matrix-associated actin-dependent regulator of chromatin subfamily A member 2 (Homo sapiens), sequence (P51531 whole entry): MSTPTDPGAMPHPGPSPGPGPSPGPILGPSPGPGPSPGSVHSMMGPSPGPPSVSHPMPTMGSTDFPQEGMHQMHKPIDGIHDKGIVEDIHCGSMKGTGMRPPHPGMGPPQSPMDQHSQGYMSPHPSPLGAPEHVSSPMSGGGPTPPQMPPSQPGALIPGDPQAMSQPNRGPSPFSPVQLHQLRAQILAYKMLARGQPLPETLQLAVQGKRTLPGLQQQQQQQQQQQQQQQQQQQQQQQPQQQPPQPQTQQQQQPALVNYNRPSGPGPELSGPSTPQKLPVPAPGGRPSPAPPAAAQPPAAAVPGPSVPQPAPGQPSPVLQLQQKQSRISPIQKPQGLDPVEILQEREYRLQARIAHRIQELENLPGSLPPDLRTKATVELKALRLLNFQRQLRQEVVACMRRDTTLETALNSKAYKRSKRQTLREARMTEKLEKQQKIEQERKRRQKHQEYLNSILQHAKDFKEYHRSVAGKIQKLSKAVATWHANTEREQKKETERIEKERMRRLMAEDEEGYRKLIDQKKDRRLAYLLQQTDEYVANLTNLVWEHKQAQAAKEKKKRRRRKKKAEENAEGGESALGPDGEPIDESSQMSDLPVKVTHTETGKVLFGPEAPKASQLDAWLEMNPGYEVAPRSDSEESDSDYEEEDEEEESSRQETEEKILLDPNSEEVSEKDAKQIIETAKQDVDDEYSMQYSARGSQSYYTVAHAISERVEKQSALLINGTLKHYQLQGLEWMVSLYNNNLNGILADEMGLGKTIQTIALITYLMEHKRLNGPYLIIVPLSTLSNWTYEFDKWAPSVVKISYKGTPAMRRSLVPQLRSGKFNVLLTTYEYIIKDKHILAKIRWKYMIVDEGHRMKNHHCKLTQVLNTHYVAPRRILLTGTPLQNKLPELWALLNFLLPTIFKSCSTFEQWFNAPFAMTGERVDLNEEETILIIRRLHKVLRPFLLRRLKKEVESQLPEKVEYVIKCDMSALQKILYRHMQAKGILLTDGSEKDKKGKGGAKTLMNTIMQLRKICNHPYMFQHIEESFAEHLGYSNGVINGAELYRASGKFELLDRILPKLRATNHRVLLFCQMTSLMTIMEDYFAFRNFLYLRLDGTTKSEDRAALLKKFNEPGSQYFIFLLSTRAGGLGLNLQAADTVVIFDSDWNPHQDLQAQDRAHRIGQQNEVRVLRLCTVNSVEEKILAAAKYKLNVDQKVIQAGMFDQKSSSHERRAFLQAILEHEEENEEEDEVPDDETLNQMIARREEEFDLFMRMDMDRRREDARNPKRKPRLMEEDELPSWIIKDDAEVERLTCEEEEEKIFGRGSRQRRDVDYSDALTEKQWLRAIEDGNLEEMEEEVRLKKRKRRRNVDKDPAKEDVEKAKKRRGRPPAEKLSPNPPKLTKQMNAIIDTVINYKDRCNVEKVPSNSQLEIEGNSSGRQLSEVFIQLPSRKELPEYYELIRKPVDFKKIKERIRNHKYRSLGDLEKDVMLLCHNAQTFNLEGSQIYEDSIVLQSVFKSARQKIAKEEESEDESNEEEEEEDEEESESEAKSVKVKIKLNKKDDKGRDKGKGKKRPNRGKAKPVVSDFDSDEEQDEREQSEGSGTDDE

[4] = test system: Mus musculus; assay: Toxicity in human OPM2 cells xenografted SCID-beige mouse assessed as body weight loss at 3.75 mg/kg, po qd administered for 28 days starting from 18 days post tumor inoculation; type: organism-based; settings: in vivo
[5] = target: Protein polybromo-1 (Homo sapiens) (UniProt Q86U86); assay: Binding affinity to human PBRM1 bromodomain 5 expressed in bacterial system assessed as remaining binding level at 1 uM by BROMOscan assay relative to control
Protein polybromo-1 (Homo sapiens), sequence (Q86U86 whole entry): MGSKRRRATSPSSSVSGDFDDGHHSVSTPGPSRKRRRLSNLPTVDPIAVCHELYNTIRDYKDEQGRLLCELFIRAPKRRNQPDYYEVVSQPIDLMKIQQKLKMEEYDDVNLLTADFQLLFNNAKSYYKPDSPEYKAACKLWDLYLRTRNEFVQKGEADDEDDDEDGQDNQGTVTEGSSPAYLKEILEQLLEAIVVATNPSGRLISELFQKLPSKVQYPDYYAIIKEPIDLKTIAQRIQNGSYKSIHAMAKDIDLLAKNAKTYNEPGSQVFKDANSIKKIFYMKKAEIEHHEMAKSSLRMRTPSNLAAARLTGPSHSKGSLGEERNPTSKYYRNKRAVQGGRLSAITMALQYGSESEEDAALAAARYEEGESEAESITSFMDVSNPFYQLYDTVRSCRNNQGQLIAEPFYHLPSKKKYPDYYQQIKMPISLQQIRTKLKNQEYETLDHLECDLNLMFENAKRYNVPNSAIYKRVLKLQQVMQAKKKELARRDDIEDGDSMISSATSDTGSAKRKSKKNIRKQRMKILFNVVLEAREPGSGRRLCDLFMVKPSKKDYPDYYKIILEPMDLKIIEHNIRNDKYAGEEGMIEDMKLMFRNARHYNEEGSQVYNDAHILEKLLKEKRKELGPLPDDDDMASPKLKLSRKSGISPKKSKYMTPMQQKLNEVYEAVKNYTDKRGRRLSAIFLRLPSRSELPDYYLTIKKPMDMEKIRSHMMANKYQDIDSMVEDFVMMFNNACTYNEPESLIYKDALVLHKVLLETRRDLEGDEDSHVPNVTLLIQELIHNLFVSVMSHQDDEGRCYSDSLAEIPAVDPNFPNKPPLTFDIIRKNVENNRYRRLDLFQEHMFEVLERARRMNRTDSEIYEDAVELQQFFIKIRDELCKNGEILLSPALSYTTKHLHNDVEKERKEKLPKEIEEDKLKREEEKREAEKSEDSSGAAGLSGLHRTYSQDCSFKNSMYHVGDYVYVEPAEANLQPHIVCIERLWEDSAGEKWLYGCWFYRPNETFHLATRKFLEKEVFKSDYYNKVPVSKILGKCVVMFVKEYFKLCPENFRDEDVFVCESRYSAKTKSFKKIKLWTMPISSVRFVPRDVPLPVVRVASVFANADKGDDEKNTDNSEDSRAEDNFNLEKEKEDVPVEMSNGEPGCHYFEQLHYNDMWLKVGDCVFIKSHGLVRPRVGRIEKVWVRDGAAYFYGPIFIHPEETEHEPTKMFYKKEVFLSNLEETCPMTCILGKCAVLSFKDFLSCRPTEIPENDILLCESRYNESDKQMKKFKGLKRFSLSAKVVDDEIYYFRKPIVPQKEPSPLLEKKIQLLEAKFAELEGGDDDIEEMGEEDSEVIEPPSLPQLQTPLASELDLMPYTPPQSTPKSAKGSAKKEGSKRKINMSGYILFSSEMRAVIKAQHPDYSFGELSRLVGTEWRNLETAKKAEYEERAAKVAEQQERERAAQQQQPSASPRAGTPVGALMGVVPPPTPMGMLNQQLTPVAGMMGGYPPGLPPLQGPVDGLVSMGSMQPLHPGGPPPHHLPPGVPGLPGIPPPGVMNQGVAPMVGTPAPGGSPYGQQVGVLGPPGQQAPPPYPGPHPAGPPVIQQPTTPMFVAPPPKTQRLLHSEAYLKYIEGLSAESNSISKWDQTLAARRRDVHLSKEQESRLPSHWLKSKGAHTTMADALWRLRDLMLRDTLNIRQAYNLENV

[6] = test system: Mus musculus; assay: Toxicity in human OPM2 cells xenografted SCID-beige mouse assessed as body weight loss at 7.5 mg/kg, po qd administered for 28 days starting from 18 days post tumor inoculation; type: organism-based; settings: in vivo
[7] = target: T1, Bromodomain-containing protein 4 (Homo sapiens, UniProt O60885); assay: Binding affinity to His-tagged BRD4 bromodomain 1 to 2 (K57 to K550 amino acids) (unknown origin) using Alexa647-labeled BET-inhibitor as fluorescent probe by bromodomain TR-FRET binding assay; type: single protein
[8] = target: Transcription initiation factor TFIID subunit 1-like (Homo sapiens) (UniProt Q8IZX4); assay: Binding affinity to human TAF1L bromodomain 2 expressed in bacterial system assessed as remaining binding level at 1 uM by BROMOscan assay relative to control
[9] = target: T2, ATPase family AAA domain-containing protein 2 (Homo sapiens) (UniProt Q6PL18); assay: Binding affinity to human ATAD2A expressed in bacterial system assessed as remaining binding level at 1 uM by BROMOscan assay relative to control
T2 sequence (whole entry): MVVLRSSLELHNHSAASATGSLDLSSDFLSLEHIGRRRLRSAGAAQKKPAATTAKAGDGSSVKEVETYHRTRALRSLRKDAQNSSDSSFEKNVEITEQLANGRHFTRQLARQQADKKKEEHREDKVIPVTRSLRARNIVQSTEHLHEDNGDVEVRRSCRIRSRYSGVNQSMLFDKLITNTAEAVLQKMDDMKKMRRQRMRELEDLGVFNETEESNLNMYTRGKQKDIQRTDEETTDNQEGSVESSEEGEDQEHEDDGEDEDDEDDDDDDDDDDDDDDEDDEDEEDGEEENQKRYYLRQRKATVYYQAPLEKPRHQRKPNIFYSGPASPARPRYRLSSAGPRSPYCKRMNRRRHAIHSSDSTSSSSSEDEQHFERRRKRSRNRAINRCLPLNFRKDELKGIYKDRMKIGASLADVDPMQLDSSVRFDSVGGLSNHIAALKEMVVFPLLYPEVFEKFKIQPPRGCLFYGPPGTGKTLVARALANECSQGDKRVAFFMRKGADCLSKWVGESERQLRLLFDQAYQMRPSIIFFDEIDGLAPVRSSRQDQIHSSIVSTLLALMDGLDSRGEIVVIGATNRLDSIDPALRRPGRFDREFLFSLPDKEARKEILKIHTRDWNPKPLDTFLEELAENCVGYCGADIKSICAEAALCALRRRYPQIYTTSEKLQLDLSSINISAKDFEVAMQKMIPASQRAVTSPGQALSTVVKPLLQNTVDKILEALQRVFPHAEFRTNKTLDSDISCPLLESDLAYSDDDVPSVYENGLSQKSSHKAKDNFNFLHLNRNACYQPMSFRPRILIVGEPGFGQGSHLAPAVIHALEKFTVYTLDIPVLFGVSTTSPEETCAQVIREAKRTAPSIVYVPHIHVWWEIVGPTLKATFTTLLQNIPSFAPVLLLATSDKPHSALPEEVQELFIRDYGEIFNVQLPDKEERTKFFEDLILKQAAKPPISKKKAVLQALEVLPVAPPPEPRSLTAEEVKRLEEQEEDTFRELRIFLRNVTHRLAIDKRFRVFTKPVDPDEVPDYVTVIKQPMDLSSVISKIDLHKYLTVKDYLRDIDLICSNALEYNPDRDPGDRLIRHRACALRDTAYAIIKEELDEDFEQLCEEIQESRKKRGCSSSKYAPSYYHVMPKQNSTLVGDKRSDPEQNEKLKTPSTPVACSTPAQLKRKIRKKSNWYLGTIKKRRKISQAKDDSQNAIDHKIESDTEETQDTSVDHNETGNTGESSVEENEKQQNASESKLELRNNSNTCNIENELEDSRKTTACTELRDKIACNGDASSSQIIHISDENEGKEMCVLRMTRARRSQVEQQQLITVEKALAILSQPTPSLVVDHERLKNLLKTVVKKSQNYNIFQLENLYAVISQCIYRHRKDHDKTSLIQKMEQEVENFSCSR

[10] = AUC in mouse at 10 mg/kg, po; type: ADME, organism-based; settings: in vivo
[11] = target: Nucleosome-remodeling factor subunit BPTF (Homo sapiens) (UniProt Q12830); assay: Binding affinity to human FALZ expressed in bacterial system assessed as remaining binding level at 1 uM by BROMOscan assay relative to control
[12] = test system: OPM-2; assay: Antitumor activity against human OPM2 cells xenografted in SCID-beige mouse assessed as inhibition of tumor growth at 3.75 mg/kg, po qd administered for 28 days starting from 18 days post tumor inoculation; type: functional; settings: OPM-2, po, read-out: TGI
[13] = target: Bromodomain adjacent to zinc finger domain protein 2B (Homo sapiens) (UniProt Q9UIF8); assay: Binding affinity to human BAZ2B expressed in bacterial system assessed as remaining binding level at 1 uM by BROMOscan assay relative to control
[14] = test system: OPM-2; assay: Antitumor activity against human OPM2 cells xenografted in SCID-beige mouse assessed as inhibition of tumor growth administered once daily orally for 28 days starting from 18 days post tumor inoculation; type: functional, cell-based
[15] = target: T1, Bromodomain-containing protein 4; assay: Binding affinity to BRD4 bromodomain 2 (E352 to M457 amino acids) (unknown origin) using Alexa647-labeled BET-inhibitor as fluorescent probe by bromodomain TR-FRET binding assay
[16] = test system: OPM-2; assay: Antitumor activity against human OPM2 cells xenografted in SCID-beige mouse assessed as inhibition of tumor growth at 0.62 mg/kg, po qd administered for 28 days starting from 18 days post tumor inoculation; type: functional; settings: OPM-2, po, read-out: TGI
[17] = test system: Mus musculus; assay: Toxicity in human OPM2 cells xenografted SCID-beige mouse assessed as body weight loss at 0.62 mg/kg, po qd administered for 28 days starting from 18 days post tumor inoculation; type: organism-based; settings: in vivo
[18] = test system: Mus musculus; assay: Toxicity in human OPM2 cells xenografted SCID-beige mouse assessed as body weight loss at 0.31 mg/kg, po qd administered for 28 days starting from 18 days post tumor inoculation; type: organism-based; settings: in vivo
[19] = test system: Mus musculus; assay: Dose normalized AUC in mouse at 1 mg/kg, po; type: ADME, organism-based; settings: in vivo

Row | pKi [2] | Activity [3] | Activity [5] | pKi [7] | Activity [8] | Activity [9] | AUC [10] | Activity [11] | Activity [13] | pKi [15] | AUC/dose [19] | SMILES | inhibition in vivo at 7.5 mg/kg [1] | Activity [4] | Activity [6] | inhibition in vivo at 3.75 mg/kg [12] | TGI [14] | inhibition in vivo at 0.62 mg/kg [16] | Activity [17] | Activity [18]
1 | 8.59 | 96% | 96% | 8.48 | 85% | 100% | 2.8 µM·h | 100% | 100% | 8.60 | – | Cn1cc2c3c(c[nH]c(=O)c31)-c1cc(CS(C)(=O)=O)ccc1N(c1ccc(F)cc1)C2 | 84% | 10% | 9% | 68% | Dose-dependent effect | – | – | –
2 | 9.32 | 68% | 62% | 9.21 | 32% | 68% | – | 39% | 72% | 8.82 | 3.5 µM·h | Cn1cc2c3c(c[nH]c3c1=O)CN(c1ccccn1)c1ccc(CS(C)(=O)=O)cc1-2 | – | – | – | – | Dose-dependent effect | 94% | 5% | 0%
3 | 8.60 | 82% | 81% | 9.06 | 18% | 4.6% | 12 µM·h | 76% | 70% | 9.14 | – | Cn1cc2c3c(c[nH]c3c1=O)CN(c1ccc(F)cc1F)c1ccc(CS(C)(=O)=O)cc1-2 | – | – | – | – | – | – | – | –
